# Measurements as given in US10054581B1, “Inhibitors of notch signaling pathway and use thereof in treatment of cancers” (Ecole Polytechnique Federale de Lausanne (EPFL), priority 2011, dated 2018).
# Entries after “also recorded” stand apart in the source; their conditions may differ.
# Test system: Notch signalling via DL4:N1 ligand-receptor pair (Notch1)
# Assay: DL4:N1 coculture assay, Notch driven luciferase reporter
# Assay type: cell-based, mouse
# Details: DL4-N1 coculture assay; for Notch inhibitory activity of derivatives compared to parental compound I3: FIG. 10
# From the text: Mouse DL4-IRES dsRED cDNA was cloned into a pENTR1 vector (Invitrogen®) and finally shuttled into a destination lentivirus vector using Gateway cloning strategy (Invitrogen). A Phosphoglycerate kinase (PGK) promoter drove the expression of DL4 protein. DL4-lentiviral particles were produced in 293T cells by cotransfection of DL4-lentivirus vector, Gag/pol expression plasmid and plasmid encoding for viral envelope proteins. To overexpress Notch1 protein, mouse full length Notch1 cDNA was a cloned in a pCDNA3.1-IRES-puromycin vector. Notch1 cDNA was cloned upstream of IRES-puromycin between HindIII and XbaI restriction sites. A CMV promoter controlled the expression of Notch1 protein.
# To measure the Notch signalling activation, CSL/RBP-jk consensus DNA binding sequences were cloned in a head to tail conformation in the pGL4 luciferase vector (Promega), thus named 12×CSL/RBP-jjk luciferase vector. In order to determine the Notch pathway activation in chemical compound screening assay, 12×CSL/RBP-jk consensus DNA binding sequences were cloned into pGL4.26.luciferase vector (Promega). As an internal control for transfection efficiency, SV40 Renilla vector was used (Promega).
# In order to generate DL4 and N1 stable cell lines, HeLa cell were bought from ATCC (catalog # CCL-2). To generate DL4 stable lines, cells were transduced with DL4-lentiviral particles. DL4 stable clones were selected using puromycin. High DL4 expressing clones were sorted using antibodies against DL4 with Fluorescence activated cell sorting (FACS). To generate N1 stable line, cell were transfected with a pCDNA3.1+(Invitrogen) plasmid containing mouse full length Notch1 under the control of CMV promoter. To select for Notch1 expressing clones, an IRES puromycin cassette was cloned downstream of Notch1 cDNA. HeLa cells expressing high levels of Notch1 were enriched by FACS using anti-Notch1 antibodies. DL4- and N1-HeLa cells were cultured in DMEM (GIBCO, Invitrogen), 10% FCS and 10 ug/ml of puromycin (Sigma).
# For chemical library screen, the coculture assay was performed as follows. N1-HeLa cells were cotransfected in 10 cm tissue culture dishes with 16 μg of pGL4.26. 12×CSL.luciferase vector/plate, 4 μg of Notch1 expression plasmid/plate, and 200 ng of SV40 Renilla vector/plate. DL4- and N1-HeLa cells were detached from the plate by using 0.5 mM EDTA (1×PBS). The both cell populations were counted and mixed in 1:1 ratio (5,000:5,000 cells/well in a 384 well plate) and dispensed into 384 well plates (white, clear bottom, Corning) using multidrop Combi plate dispenser. The assay plates were pre-dispensed (using automated Biomek 3000 liquid handler) with chemical compound libraries (Microsource NIMDS, Maybridge Hitfinder and Prestwick) to give a final concentration of 10 μM. The final assay volume was 22 μls. Twenty-four hours later, growth media was aspirated and cells were lysed with 1× Passive lysis buffer for 10 minutes at room temperature. Luciferase activity was measured using Luciferase Assay Reagent II and Renilla values were determined by using Stop and Glow reagent (Dual luciferase assay system, Cat #E1980, Promega). Luciferase and renilla readouts were taken using Tecan® F500 (Tecan) multiplate reader. All the liquid handling steps (aspiration of the medium, dispensing of Passive lysis buffer, Luciferase Assay Reagent II and Stop and Glow reagents) were performed using ELF406 liquid handler.
# In order to identify novel modulators of the Notch pathway, Applicants have established a coculture assay in which DL4 ligand expressing HeLa cells were cultured with N1 HeLa cells, thereby activating the Notch pathway. The use of a DL4 and N1 HeLa cell coculture system mimics physiological conditions of cell-cell communication between ligand and receptor expressing cells. The in vitro generation of a controlled receptor-ligand assay system allowed Applicants to modify and monitor the Notch signal intensity by γ-secretase inhibitors. […]
SMILES,ability to block Notch pathway activation in coculture assay (screening of derivatives),Notch inhibitory activity of derivatives compared to parental compound I3
"CCCC(C)(C)c1ccc(Oc2ccc(N)cn2)cc1 [I3-N, 6-(4-(2-methylpentan-2-yl)phenoxy)pyridin-3-amine]",ability to block Notch pathway activation in coculture assay,block Notch signalling to comparable levels to parental compound I3; also recorded: exhibit anti-Notch activity comparable to 6-(4-Tert-Butylphenoxy)Pyridin-3-Amine (I3)
"CC(C)(C)CC(C)(C)c1ccc(Oc2ccc(N)cn2)cc1 [I3-K, 6-(4-(2,4,4-trimethylpentan-2-yl)phenoxy)pyridin-3-amine]",ability to block Notch pathway activation in coculture assay,–
"CC(C)c1ccc(Oc2ccc(N)cc2)cc1 [I3-J, 4-(4-isopropylphenoxy)aniline]",ability to block Notch pathway activation in coculture assay,–
"CC(C)(C)c1ccc(Oc2ccc(N)cc2)cc1 [I3-C, 4-(4-(tert-butyl)phenoxy)aniline]",ability to block Notch pathway activation in coculture assay,block Notch signalling to comparable levels to parental compound I3; also recorded: exhibit anti-Notch activity comparable to 6-(4-Tert-Butylphenoxy)Pyridin-3-Amine (I3)
"Nc1ccc(Oc2ccc(C34CC5CC(CC(C5)C3)C4)cc2)c(F)c1 [I3-P, 4-(4-((3r,5r,7r)-adamantan-1-yl)phenoxy)-3-fluoroaniline]",ability to block Notch pathway activation in coculture assay,–
"CCC(C)(C)c1ccc(Oc2ccc(N)cn2)cc1 [I3-B, 6-(4-(tert-Pentyl)phenoxy)pyridin-3-amine]",ability to block Notch pathway activation in coculture assay,block Notch signalling to comparable levels to parental compound I3; also recorded: exhibit anti-Notch activity comparable to 6-(4-Tert-Butylphenoxy)Pyridin-3-Amine (I3)
"Nc1ccc(Oc2ccc(C3CCCCC3)cc2)c(F)c1 [I3-L, 4-(4-cyclohexylphenoxy)-3-fluoroaniline]",ability to block Notch pathway activation in coculture assay,–
"CC(C)(C)c1ccc(Oc2ccc(N)cc2F)cc1 [I3-I, 4-(4-(tert-butyl)phenoxy)-3-fluoroaniline]",ability to block Notch pathway activation in coculture assay,appear to have enhanced activity
"Nc1ccc(Oc2ccc(C3CCCCC3)cc2)cc1 [I3-F, 4-(4-cyclohexylphenoxy)aniline]",ability to block Notch pathway activation in coculture assay,appear to have enhanced activity
"Nc1ccc(Oc2ccc(C34CC5CC(CC(C5)C3)C4)cc2)cc1 [I3-O, 4-(4-((3r,5r,7r)-adamantan-1-yl)phenoxy)aniline]",ability to block Notch pathway activation in coculture assay,–
"Nc1ccc(Oc2ccc(C34CC5CC(CC(C5)C3)C4)cc2)nc1 [I3-G, 6-(4-((3r,5r,7r)-adamantan-1-yl)phenoxy)pyridin-3-amine]",ability to block Notch pathway activation in coculture assay,block Notch signalling to comparable levels to parental compound I3; also recorded: exhibit anti-Notch activity comparable to 6-(4-Tert-Butylphenoxy)Pyridin-3-Amine (I3)
"Nc1ccc(Oc2ccc(C3CCCCC3)cc2)nc1 [I3-A, 6-(4-cyclohexylphenoxy)pyridin-3-amine]",ability to block Notch pathway activation in coculture assay,block Notch signalling to comparable levels to parental compound I3; also recorded: exhibit anti-Notch activity comparable to 6-(4-Tert-Butylphenoxy)Pyridin-3-Amine (I3)
"CCC(C)(C)c1ccc(Oc2ccc(N)cc2F)cc1 [I3-M, 3-fluoro-4-(4-(tert-pentyl)phenoxy)aniline]",ability to block Notch pathway activation in coculture assay,block Notch signalling to comparable levels to parental compound I3; also recorded: exhibit anti-Notch activity comparable to 6-(4-Tert-Butylphenoxy)Pyridin-3-Amine (I3)
"CC(C)(C)c1cccc(Oc2ccc(N)cn2)c1 [I3-H, 6-(3-(tert-butyl)phenoxy)pyridin-3-amine]",ability to block Notch pathway activation in coculture assay,block Notch signalling to comparable levels to parental compound I3; also recorded: exhibit anti-Notch activity comparable to 6-(4-Tert-Butylphenoxy)Pyridin-3-Amine (I3)
"CCCCc1ccc(Oc2ccc(N)cn2)cc1 [I3-D, 6-(4-Butylphenoxy)pyridin-3-amine]",ability to block Notch pathway activation in coculture assay,–
"CCC(C)(C)c1ccc(Oc2ccc(N)cc2)cc1 [I3-E, 4-(4-(tert-pentyl)phenoxy)aniline]",ability to block Notch pathway activation in coculture assay,block Notch signalling to comparable levels to parental compound I3; also recorded: exhibit anti-Notch activity comparable to 6-(4-Tert-Butylphenoxy)Pyridin-3-Amine (I3)
